Assay results: patent EP4309654A1, “INDOLE-3-CARBINOL IN COMBINATION WITH IBRUTINIB FOR THE TREATMENT OF B LYMPHOID NEOPLASMS” (Consejo Superior de Investigaciones Científicas (CSIC), priority 2022, dated 2024)

Legend:
[1] = in blood; cited from earlier work
[2] = tested on: different types of solid tumours; experiment: Viability of different types of solid tumour cell lines; assay type: cell-based; conditions: HCC1954, A375P, HCT116, HT1080, pancreatic cancer lines 185 and 354
Source text: We studied the effect of I3C alone or in combination with different drugs commonly used in the clinic for the targeted treatment of solid tumours of various origins. We used the ductal breast cancer line HCC1954 and the drug Lapatinib, the melanoma line A375P and the drug Vemurafenib, the colorectal cancer line HCT116 and the drug 5-fluorouracil, the sarcoma line HT1080 and the experimental drug ADC, and two primary pancreatic cancer lines 185 and 354 and the drug Abraxane. Results obtained (Fig. 11) shown that I3C has no effect on different types of solid tumours.

In the case of `OCc1c[nH]c2ccccc12` [I3C, (1H-indol-3-yl)methanol], the bioavailability [1] is given as 22 µM and the “effect on solid tumours (viability)” value [2] is given as “no effect”.
